# PMC10891602, “Improvement of Carotenoids’ Production by Increasing the Activity of Beta-Carotene Ketolase with Different Strategies” (Microorganisms, 2024)
# Key:
# CrtWBsp = molecular target: T1, CrtWBsp (Brevundimonas sp. NBRC 101024, UniProt Q4W8B8); test: HPLC of echinenone and canthaxanthin formed by crude extract; format: biochemical; conditions: Fe2+, 2-oxoglutarate, ascorbate, NADPH, ATP; pH 8.0; 30 °C; 3 h
# T1 construct: gene crtW
# T1 sequence (Q4W8B8 1-244): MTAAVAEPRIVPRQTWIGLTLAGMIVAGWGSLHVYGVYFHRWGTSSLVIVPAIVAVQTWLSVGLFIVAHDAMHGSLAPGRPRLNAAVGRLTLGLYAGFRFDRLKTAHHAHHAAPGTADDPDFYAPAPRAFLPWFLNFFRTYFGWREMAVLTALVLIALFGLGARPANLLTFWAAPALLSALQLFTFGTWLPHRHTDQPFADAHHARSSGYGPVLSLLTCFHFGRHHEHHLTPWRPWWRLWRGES
# CzW1 = molecular target: T2, CzW1 (Chromochloris zofingiensis, UniProt Q5U931); test: as above; format: biochemical; conditions: Fe2+, 2-oxoglutarate, ascorbate, NADPH, ATP; pH 8.0; 30 °C; 3 h
# T2 construct: gene bkt/crto
# T2 sequence (Q5U931 1-312): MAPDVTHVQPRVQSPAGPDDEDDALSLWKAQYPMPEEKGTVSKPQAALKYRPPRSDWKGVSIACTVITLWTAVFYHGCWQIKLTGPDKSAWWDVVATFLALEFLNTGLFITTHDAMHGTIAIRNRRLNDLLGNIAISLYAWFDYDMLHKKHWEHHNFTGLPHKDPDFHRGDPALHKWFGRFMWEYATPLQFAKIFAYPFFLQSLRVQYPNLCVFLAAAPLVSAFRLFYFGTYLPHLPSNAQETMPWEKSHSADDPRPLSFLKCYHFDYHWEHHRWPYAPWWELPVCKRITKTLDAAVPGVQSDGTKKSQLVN
smiles,measurement,setting,value
CC1=C(/C=C/C(C)=C/C=C/C(C)=C/C=C/C=C(C)/C=C/C=C(C)/C=C/C2=C(C)CCCC2(C)C)C(C)(C)CCC1 [β-carotene],HPLC of echinenone and canthaxanthin formed by crude extract,CrtWBsp,β-carotene ketolase from p30CrtWBsp was more efficient in the production of echinenone and canthaxanthin
same,HPLC of echinenone and canthaxanthin formed by crude extract,CzW1,canthaxanthin was only detected in enzymatic solution containing protein extracts from E. coli with pCrtWBsp and pCzW1
